Assay results reported in PMC11174489, “In Vitro Activation of Human Adrenergic Receptors and Trace Amine-Associated Receptor 1 by Phenethylamine Analogues Present in Food Supplements” (Nutrients, 2024).

Tests used:
Assay type in all cases: cell-based
[1] = target: T1, human adrenergic receptor (ADR) α1A (Homo sapiens, UniProt P35348); assay: ADRα1A activation, Ca2+ influx (Fluo-8) in overexpressing chem-1 cells; details: for ADRα1A Emax: % of maximal signal obtained by adrenaline, average (95% CI); for EC50: Ca2+ response, chem-1 cells, average (95% confidence interval), 7–9 experiments; for Emax: Chem-1
T1 construct: host or cells: rat chem-1 cells
T1 sequence (P35348 1-466): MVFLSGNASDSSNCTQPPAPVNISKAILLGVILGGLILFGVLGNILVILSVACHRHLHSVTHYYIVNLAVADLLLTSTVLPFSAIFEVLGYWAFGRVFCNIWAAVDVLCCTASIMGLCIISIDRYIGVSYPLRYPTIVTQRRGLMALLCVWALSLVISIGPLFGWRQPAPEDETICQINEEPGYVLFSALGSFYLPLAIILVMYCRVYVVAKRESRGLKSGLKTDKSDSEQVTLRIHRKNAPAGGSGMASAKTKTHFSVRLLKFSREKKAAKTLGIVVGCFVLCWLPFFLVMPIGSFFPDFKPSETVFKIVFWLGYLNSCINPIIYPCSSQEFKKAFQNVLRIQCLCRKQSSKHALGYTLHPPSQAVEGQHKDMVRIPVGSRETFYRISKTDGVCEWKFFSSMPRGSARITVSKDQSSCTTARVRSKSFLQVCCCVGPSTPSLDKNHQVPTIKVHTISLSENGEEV

[2] = target: T2, human adrenergic receptor (ADR) α1B (Homo sapiens, UniProt P35368); assay: ADRα1B activation, Ca2+ influx (Fluo-8) in overexpressing chem-1 cells; details: for ADRα1B Emax: % of maximal signal obtained by adrenaline, average (95% CI); for Emax: Chem-1, read-out: ADRα1B Emax
T2 construct: host or cells: rat chem-1 cells
T2 sequence (P35368 1-520): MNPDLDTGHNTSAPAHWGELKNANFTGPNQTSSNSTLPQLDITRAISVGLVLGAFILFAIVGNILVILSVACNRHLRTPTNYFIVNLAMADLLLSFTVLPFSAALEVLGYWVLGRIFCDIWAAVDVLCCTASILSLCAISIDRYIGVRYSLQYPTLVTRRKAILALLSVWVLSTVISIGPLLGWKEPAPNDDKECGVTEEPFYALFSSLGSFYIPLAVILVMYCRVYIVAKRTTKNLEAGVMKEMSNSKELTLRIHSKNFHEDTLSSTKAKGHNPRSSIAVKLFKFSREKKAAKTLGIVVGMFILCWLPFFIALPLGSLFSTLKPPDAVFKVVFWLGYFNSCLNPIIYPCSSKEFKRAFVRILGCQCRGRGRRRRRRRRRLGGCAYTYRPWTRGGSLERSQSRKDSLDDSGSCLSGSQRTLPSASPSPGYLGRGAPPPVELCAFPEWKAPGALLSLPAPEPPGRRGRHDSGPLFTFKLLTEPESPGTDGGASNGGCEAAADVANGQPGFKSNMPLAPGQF
Source text: Cells overexpressing human ADRs α1A, α1B, α1D, α2A, α2B, β1 and β2 (Eurofins Discovery Services, St. Charles, MO, USA, product numbers: HTS087RTA, HTS158RTA, HTS216RTA, HTS096RTA, HTS157LRTA, HTS104RTA and HTS073RTA, respectively) were used to study the potency (EC50) and efficacy (Emax) of the selected compounds for these receptors by quantifying Ca^2+ influx upon receptor activation. ADRα1A, α1B, α1D, α2A, β1 and β2 were overexpressed in rat chem-1 cells. ADRα2B was overexpressed in HEK293 cells. The cells were seeded (10,000–50,000 cells/well) in a black 96-well plate (VWR International, Leuven, Belgium) and incubated at 37 °C and 5% CO2 for 24 h. After 24 h, the cells were washed with Hank’s balanced salt solution (HBSS) (Gibco, Paisley, UK) containing 0.35 g/L sodium bicarbonate and incubated with 5 µg/mL Fluo-8 AM in HBSS (pH 7.4) supplemented with 2.5 mM probenecid for 1 h. […] Peak tops of the obtained fluorescence response–time curves were corrected for baseline fluorescence and used to construct concentration–response relationships.
Concentration–response relationships for TAAR1 activation are presented as percentages of the maximal intracellular cAMP level induced by full the TAAR1 agonist phenethylamine and corrected for baseline cAMP accumulation. […] Experiments were run in duplicate in 7–9 independent experiments for ADR and were run in 3–5 independent experiments for TAAR1.

[3] = target: T3, human adrenergic receptor (ADR) α1D (Homo sapiens, UniProt P25100); assay: ADRα1D activation, Ca2+ influx (Fluo-8) in overexpressing chem-1 cells; details: for ADRα1D Emax: % of maximal signal obtained by adrenaline, average (95% CI); for EC50: Ca2+ response, chem-1 cells, average (95% confidence interval), 7–9 experiments; for Emax: Chem-1
T3 construct: host or cells: rat chem-1 cells
T3 sequence (P25100 1-572): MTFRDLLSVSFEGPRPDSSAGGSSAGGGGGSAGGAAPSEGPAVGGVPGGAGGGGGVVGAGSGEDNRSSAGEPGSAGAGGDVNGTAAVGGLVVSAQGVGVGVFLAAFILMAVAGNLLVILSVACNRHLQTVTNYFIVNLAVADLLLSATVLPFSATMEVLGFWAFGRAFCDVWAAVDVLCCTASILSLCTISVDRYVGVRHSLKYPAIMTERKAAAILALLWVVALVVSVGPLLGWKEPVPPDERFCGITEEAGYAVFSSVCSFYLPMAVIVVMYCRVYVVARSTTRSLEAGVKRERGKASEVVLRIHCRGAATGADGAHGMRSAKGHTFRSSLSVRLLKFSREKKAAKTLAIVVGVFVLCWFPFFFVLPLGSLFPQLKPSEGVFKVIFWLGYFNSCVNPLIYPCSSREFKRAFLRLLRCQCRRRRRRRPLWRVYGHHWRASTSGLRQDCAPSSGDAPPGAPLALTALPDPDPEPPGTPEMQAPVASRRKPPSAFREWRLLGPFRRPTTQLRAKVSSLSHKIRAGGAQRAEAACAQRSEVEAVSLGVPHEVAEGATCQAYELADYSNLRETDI

[4] = target: T4, human adrenergic receptor (ADR) α2A (Homo sapiens, UniProt P08913); assay: ADRα2A activation, Ca2+ influx (Fluo-8) in overexpressing chem-1 cells; details: for EC50: Ca2+ response, chem-1 cells, average (95% confidence interval), 7–9 experiments; for potency at ADRα2A, times lower compared to adrenaline: relative to the endogenous agonist adrenaline
T4 construct: host or cells: rat chem-1 cells
T4 sequence (P08913 1-465): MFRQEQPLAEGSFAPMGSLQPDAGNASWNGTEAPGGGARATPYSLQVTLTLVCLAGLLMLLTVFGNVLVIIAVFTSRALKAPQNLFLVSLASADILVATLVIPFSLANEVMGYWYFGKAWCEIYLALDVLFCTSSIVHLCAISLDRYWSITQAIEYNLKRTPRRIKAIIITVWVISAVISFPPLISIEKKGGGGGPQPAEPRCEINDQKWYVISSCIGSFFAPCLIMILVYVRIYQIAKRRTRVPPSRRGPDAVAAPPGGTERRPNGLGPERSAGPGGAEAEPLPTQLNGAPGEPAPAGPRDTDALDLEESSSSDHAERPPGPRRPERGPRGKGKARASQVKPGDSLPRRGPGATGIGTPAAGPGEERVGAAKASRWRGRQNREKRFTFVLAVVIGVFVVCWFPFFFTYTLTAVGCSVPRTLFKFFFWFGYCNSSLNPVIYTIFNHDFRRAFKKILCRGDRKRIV

[5] = target: T5, human adrenergic receptor (ADR) β2 (Homo sapiens, UniProt P07550); assay: ADRβ2 activation, Ca2+ influx (Fluo-8) in overexpressing chem-1 cells; details: for ADRβ2 Emax: % of maximal signal obtained by adrenaline, average (95% CI); for EC50: Ca2+ response, chem-1 cells, average (95% confidence interval), 7–9 experiments
T5 construct: host or cells: rat chem-1 cells
T5 sequence (P07550 whole entry): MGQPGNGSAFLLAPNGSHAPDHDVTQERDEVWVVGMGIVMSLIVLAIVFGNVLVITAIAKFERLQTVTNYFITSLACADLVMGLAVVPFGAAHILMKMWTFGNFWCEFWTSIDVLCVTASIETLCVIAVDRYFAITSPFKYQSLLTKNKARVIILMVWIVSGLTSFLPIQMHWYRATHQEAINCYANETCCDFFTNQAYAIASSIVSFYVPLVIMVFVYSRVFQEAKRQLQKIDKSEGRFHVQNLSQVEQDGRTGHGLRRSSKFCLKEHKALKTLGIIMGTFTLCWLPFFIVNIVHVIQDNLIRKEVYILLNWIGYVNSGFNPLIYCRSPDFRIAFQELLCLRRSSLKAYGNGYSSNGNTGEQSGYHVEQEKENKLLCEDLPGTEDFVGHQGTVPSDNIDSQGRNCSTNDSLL

SMILES	ADRα1A Emax [1]	EC50 [1] [µM]	EC50 [2] [µM]	ADRα1B Emax [2]	ADRα1D Emax [3]	EC50 [3] [µM]	EC50 [4] [µM]	ADRβ2 Emax [5]	EC50 [5] [µM]	Emax [2] [%]	Emax [3] [%]	Emax [1] [%]	Emax ([5]; Chem-1) [%]	potency at ADRβ2, times less potent than adrenaline ([5]; relative to the full agonist adrenaline)	ADRα2A Emax ([4]; % of maximal signal obtained by adrenaline, average (95% CI)) [%]	potency at ADRα2A, times lower compared to adrenaline [4] [times]	Emax ([4]; Chem-1, % of maximal signal obtained by adrenaline, average (95% CI)) [%]
CC(C)CC(C)N (centres unmarked)	-	> 300	> 300	-	-	> 300	> 300	-	> 300								
CC(C)CCCC(C)N (centres unmarked)	-	> 300	> 300	-	-	> 300	> 300	-	> 300								
CCC(C)CC(C)N (centres unmarked) [1,3-Dimethylamylamine, 1,3-dimethylamylamine]	-	> 300	> 300	-	-	> 300	> 300	-	> 300								
CN(C)CCO [Dimethylaminoethanol, dimethylaminoethanol]	-	> 300	> 300	-	-	> 300	> 300	-	> 300								
CN(C)CCc1ccccc1 [Dimethylphenethylamine, N,N-dimethylphenethylamine]	-	> 300	6.1			8.4	> 300	-	> 300	19	7.9						
CNCC(O)c1ccccc1 (centres unmarked) [Halostachine, halostachine]		8.7	1.1			2.1	> 300	-	> 300	77	82	59					
Oc1ccc(CC2NCCc3cc(O)c(O)cc32)cc1 (centres unmarked) [Higenamine, higenamine]	-	> 300	> 300	-	-	> 300	> 300		0.47				31	seven			
CN(C)CCc1ccc(O)cc1 [Hordenine, hordenine]	-	> 300	5.7			34	690	-	> 300	37	23				12	> 12000	
CC(C)NCC(O)c1ccc(O)cc1 (centres unmarked) [Isopropyloctopamine, isopropyloctopamine]	-	> 300	> 300	-	-	> 300	> 300	-	> 300								
CNC(C)C(O)c1ccc(O)cc1 (centres unmarked) [Methylsynephrine]		44	> 300	-	-	> 300	> 300	-	> 300			16					
NCCc1ccccc1 [Phenethylamine, phenethylamine]	-	> 300	> 300	-	-	> 300	> 300	-	> 300								
NCCc1ccc(O)cc1 [Tyramine, tyramine]	-	> 300	> 300	-	-	> 300	> 300	-									
NCC(O)c1ccc(O)cc1 (centres unmarked) [p-Octopamine, p-octopamine]		11	3.9			1.2	> 300	-	> 300	94	100	87					
CNCC(O)c1ccc(O)cc1 (centres unmarked) [p-Synephrine, p-synephrine]		2.4					100	-	> 300	91	80	82				> 12000	89
CC(CN)c1ccccc1 (stereo not drawn) [β-Methylphenethyl-amine, beta-methylphenethylamine]	-	> 300	> 300	-	-	> 300	> 300	-	> 300								
